Measurements published in PMC9848270, “Synthesis and biological assessment of indole derivatives containing penta-heterocycles scaffold as novel anticancer agents towards A549 and K562 cells” (Journal of Enzyme Inhibition and Medicinal Chemistry, 2023).
Read-outs that look alike come from different tables or passages of the source.

Legend:
[1] = system: MDM2 and p53 levels in K562; assay: Western blot, K562; assay type: cell-based, human; settings: 0.5 µM, 48 h
Protocol: (§1) Cells were treated with different concentrations of compound for 48 h. After incubation, the cells were washed and collected. Total cell extracts were prepared with RIPA buffer, containing protease inhibitor and phosphatase inhibitor. The lysate was incubated at 0 °C for 60 min, and centrifuged at 12,000 rpm for 15 min at 4 °C to remove cellular debris. Next, the protein concentration was detected using BCA protein concentration assay kit (Beyotime, Shanghai). 20 µg of total protein was subjected to gel electrophoresis and transferred to PVDF membranes (Millipore, Burlington, MA, USA). After blocking in 5% BSA blocking buffer for 60 min, then incubated with primary antibody overnight at 4 °C, washed three times with TBST for 5 min each, followed by incubation with secondary antibody and washed. The blot was developed and exposed by chemiluminescence developer solution, which was placed on a chemiluminescence developer (Pierce, Rockford, Illinois, USA).

K562 cells [2] = assay: Annexin V-FITC/PI apoptosis flow cytometry, K562; assay type: cell-based, human; settings: 48 h, annexin V-FITC/PI
Protocol: (§2) Annexin-V/FITC assay, after the adherent cells grew stably in the 6-well plate, each group was reacted with different concentrations of compound solutions for 48 h. Then, cells were collected by trypsinization without EDTA, rinsed twice with PBS, followed by the Annexin V-FITC/PI apoptosis detection kit (Solarbio, Bei Jing, China) according to the kit instructions, flow cytometry by BD FACSCalibur instrument (American BD Company Shanghai Co., Ltd.).

K562 cells [3] = assay: Cell cycle analysis (PI staining, flow cytometry), K562; assay type: cell-based, human
Protocol: (§3) A549 or K562 cells were separately seeded at 4.0 × 10^5cells/well in six-well plates and incubated for 24 h until adherent. […] After treatment, the cells were collected, and washed twice with pre-cooled PBS and then fixed with ice-cold ethanol (70%), subsequently kept 4 °C for overnight. After washing twice with PBS, cells were incubated at 37 °C with 100 µ L RNase A for 30 min. After this, cells were incubated with 400 µL PI for 30 min at 4 °C. Finally, the cell cycle distribution of compound 10 b was analysed via the BD FACSCalibur flow cytometry (American BD Corporation Shanghai Co. Ltd.)

[4] = system: human chronic myeloid leukaemia cells (K562); assay: MTT antiproliferative assay, K562; assay type: cell-based
Protocol: (§4) A549, PC-3, HepG2 and K562 cells were purchased from the Kunming cell bank of the Chinese academy of sciences. All cell lines were cultured in DMEM or RPMI 1640 complete medium. Logarithmic growth cells were cultured in 96-well plates at a concentration of 10^4 cells per well and pre-cultured for 24 h before adding test compounds. The MTT test with 5-Fluorouracil and Gefitinib as reference compounds were used to evaluate antiproliferative activity of target compounds in four human cancer line cells. For the estimation of the inhibition concentration (IC50), the Graph Pad Prism (GraphPad Software, San Diego, CA) was used.

A549 cells [5] = assay: Annexin V-FITC/PI apoptosis flow cytometry, A549; assay type: cell-based, human; settings: 48 h, annexin V-FITC/PI
Protocol: as §2

[6] = MTT cytotoxicity, normal cell line HEK293; assay type: cell-based, human; settings: human
[7] = system: normal cell line (HEK293); assay: MTT cytotoxicity, normal cell line HEK293; assay type: cell-based, human; settings: Homo sapiens, HEK293; 10 μM; read-out: Inhibition rate, HEK293
A549 cells [8] = assay: DAPI staining, A549; assay type: cell-based, human; settings: 1, 2 and 4 µM, 48 h
Protocol: DAPI staining assay, A549 or K562 cells were separately seeded at 4.0 × 10^5 cells per well in six–well plates and incubated for 24 h until adherent. Next, the cells were treated with 10 b at 0, 1, 2 and 4 µM for 48 h. Then the cells were fixed with 4% paraformaldehyde for 15 min, and 1 ml/well of DAPI staining dye was added for 20 min in the dark. After adding the anti-fluorescence quencher, the cells can be imaged by an inverted fluorescence microscope.

A549 cells [9] = assay: Cell cycle analysis (PI staining, flow cytometry), A549; assay type: cell-based, human
Protocol: as §3

[10] = system: human liver cancer cells (HepG2); assay: MTT antiproliferative assay, HepG2; assay type: cell-based
Protocol: as §4

A549 cells [11] = assay: Wound healing migration assay, A549; assay type: cell-based, human; settings: 1 µM
Protocol: After 24 h of growth, cells were placed in a 6-well plate, scratched using a 10 µL pipet tip on the cell surface. Then, gently wash twice with medium to remove the detached cells. The cells were treated with compound 10 b with 0.5 and 1.0 µM followed by 48 h incubation and photographed using an inverted microscope.

[12] = system: human prostate cancer cells (PC-3); assay: MTT antiproliferative assay, PC-3; assay type: cell-based; settings: for IC50: 48 h, MTT assay, read-out: In vitro cytotoxicity IC50, PC-3
Protocol: as §4

[13] = system: human non-small cell lung cancer cells (A549); assay: MTT antiproliferative assay, A549; assay type: cell-based
Protocol: as §4

[14] = system: EGFR, p-EGFR, Akt and p-Akt levels in A549; assay: Western blot, A549; assay type: cell-based, human; settings: 0.5 and 1 μM, 48 h
Protocol: as §1

MCF-7 cell = system: MCF-7 cell; set-up: method as in PMID 33130342; settings: cited from earlier work
[15] = target: epidermal growth factor receptor (EGFR); settings: read-out: EGFR inhibition IC50; cited from earlier work

## COc1cc(-c2nnc(SCC(=O)Nc3cc(-c4c[nH]c5ccccc45)n[nH]3)s2)cc(OC)c1OC [Compound 10b, N-(3-(1H-indol-3-yl)-1H-pyrazol-5-yl)-2-((5-(3,4,5-trimethoxyphenyl)-1,3,4-thiadiazol-2-yl)thio)acetamide]
[1]
  MDM2 expression in K562: significantly downregulated
  p53 protein level in K562: upregulated in a certain extent
K562 cells [2]; 1 μM
  Q2, late apoptotic cells, K562: 58.2%
K562 cells [2]; 2 μM
  Q2, late apoptotic cells, K562: 67.8%
K562 cells [2]; 4 μM
  Q2, late apoptotic cells, K562: 73.2%
K562 cells [3]; 4 µM, 48 h
  DNA contents of the live population, G2/M phase, K562: 27.60%
  DNA contents of the live population, S phase, K562: 26.47%
K562 cells [3]; dose-dependent, 1, 2, 4 µM
  cell cycle arrest in words, K562: arresting cells in the G2/M phase
[4]; K562, 10 μM, read-out: Inhibition rate, K562
  inhibition at 10 µM: 97.2 ± 0.526%
[4]; K562, 48 h, MTT assay, 48 h, read-out: In vitro cytotoxicity IC50, K562
  IC50: 13.2 ± 10 nM
[4]; K562, Table 2, unit inferred, repeats Table 1, read-out: K562 (IC50, Table 2)
  IC50: 13.2 ± 10 nM
[4]; K562, as stated in abstract and conclusion, read-out: IC50 against K562
  IC50: 10 nM
A549 cells [5]; 1 μM
  Q2, late apoptotic cells, A549: 8.36%
A549 cells [5]; 2 μM
  Q2, late apoptotic cells, A549: 16.0%
A549 cells [5]; 4 μM
  Q2, late apoptotic cells, A549: 35.7%
[6]; HEK293 cells (normal cell line), MTT assay, 48 h, normal cell line, CC50, read-out: In vitro cytotoxicity IC50, HEK293
  IC50 at 48 h: 1120 ± 1390 nM
[6]; HEK293 cells, Table 2, unit inferred, repeats Table 1
  CC50: 1120 ± 1390 nM
[7]
  inhibition at 10 µM: 77.9 ± 2.08%
A549 cells [8]
  apoptosis by DAPI staining, in words: induced apoptosis
A549 cells [9]; 4 µM, 48 h
  DNA contents of the live population, G0/G1 phase, A549: 38.60%
  DNA contents of the live population, G2/M phase, A549: 24.33%
  DNA contents of the live population, S phase, A549: 27.47%
A549 cells [9]; dose-dependent, 1, 2, 4 µM
  cell cycle arrest in words, A549: arresting cells in the G2/M phase
[10]; 10 μM, read-out: Inhibition rate, HepG2
  inhibition at 10 µM: 92.1 ± 3.01%
[10]; MTT assay, 48 h, read-out: In vitro cytotoxicity IC50, HepG2
  IC50: 210 ± 70 nM
A549 cells [11]
  migration of A549 cells, in words: could inhibit the migration of A549 cells
[12]; Homo sapiens
  IC50: 850 nM
[12]; Homo sapiens, 10 μM, read-out: Inhibition rate, PC-3
  inhibition at 10 µM: 88.4 ± 5.99%
[12]
  IC50: 853 ± 720 nM
[13]; A549, 10 μM, read-out: Inhibition rate, A549
  inhibition at 10 µM: 96.2 ± 0.737%
[13]; A549, 48 h, MTT assay, 48 h, read-out: In vitro cytotoxicity IC50, A549
  IC50: 120 nM
[13]; A549, Table 2, unit inferred, repeats Table 1, read-out: A549 (IC50, Table 2)
  IC50: 124 ± 50 nM
[13]; A549, as stated in abstract and conclusion, read-out: IC50 against A549
  IC50: 12 nM
[14]
  p-Akt protein level in A549: downregulated in a dose dependently manner
  p-EGFR protein level in A549: downregulated in a dose dependently manner

## O=C(Nc1nnc(SCc2ccc(Cl)c(Cl)c2)s1)c1cn(C2CC2)c2cc(N3CCNCC3)c(F)cc2c1=O [Compound B]
MCF-7 cell
  apoptosis in MCF-7 cell, in words: inducing apoptosis significantly

## C=CCSc1nnc(-c2cc3ccccc3[nH]2)n1N=Cc1c[nH]c2ccccc12 [Compound C]
[15]
  IC50: 19.8 nM
